Measured values as given in US6511976B1, “Halogen substituted tetracyclic tetrahydrofuran derivatives” (Jannsen Pharmaceutica, N.V., priority 1997, dated 2003).

Legend:
[1] = dose of 300 mg/kg; cited from earlier work
[2] = system: mCPP induced effects; assay: mCPP Test on Rats (pre-test time T of 1 hour); type: in vivo; conditions: test compound at pre-test time T of 1 hour; 1 mg/kg mCPP intravenously 15 minutes prior to test; Open Field Test
Procedure: Rats were treated with the test compound at a varying dose at a pre-test time T of 1 hour and with 1 mg/kg mCPP (metachlorophenylpiperazine), injected intravenously, 15 minutes prior to the test. After pre-test time T elapsed, treated rats were submitted to the “Open Field Test on Rats” as described in Drug Dev. Res. 18, 119-144 (1989), but using an infra-red light source instead of a Kleverlux® (12V/20W) light source. […] Compound numbers 2 and 8 through 16 were active at a test dose of 2.5 mg/kg or lower. Other compounds were either not tested or were active at a higher dose.

[3] = system: dopamine (symptoms elicited with the dopamine agonist apomorphine); assay: ATN Test in Rats: apomorphine interaction; type: in vivo; conditions: observed at 30 minutes following subcutaneous administration
Description: (§1) The antipsychotic activity of the subject compounds is evidenced by the experimental data obtained in the combined apomorphine (APO), tryptamine (TRY) and norepinephrine (NOR) test in rats. Said combined apomorphine, tryptamine and norepinephrine test is described in Arch. Int. Pharmacodyn., 227, 238-253 (1977) and provides an empirical evaluation of the relative specificity with which drugs may effect particular neurotransmitter systems centrally (CNS) as well as peripherally. […] The favourable pharmacological property of the present compounds compared to the compounds specifically disclosed in WO 97/38991 lies in their ability to antagonize the central symptoms elicited by apomorphine and tryptamine.

[4] = system: serotonin (central symptoms elicited with the serotonin agonist tryptamine); assay: ATN Test in Rats: tryptamine interaction; type: in vivo; conditions: observed at 90 minutes following subcutaneous administration
Description: as §1

Row | Compound | activity as antidepressant [1] | active dose (40% or more of the tested rats showed suppression of the mCPP induced effects, mCPP-antagonism) [2] [mg/kg] | ED50, apomorphine interaction: antagonism of agitation and stereotypy [3] [mg/kg] | ED50, tryptamine interaction: antagonism of backward locomotion [4] [mg/kg] | ED50, tryptamine interaction: antagonism of bilateral clonic convulsions [4]
1 | CNCC1CC2c3ccccc3Cc3ccccc3C2O1.O=C(O)C(=O)O (racemic) [(±)-3,3a,8,12b-tetrahydro-N-methyl-2H-dibenzo[3,4:6,7]-cyclohepta-[1,2-b]furan-2-methanamine oxalic acid] | inactive |  |  |  | 
2 | CN(C)CC1CC2c3ccccc3Cc3ccc(F)cc3C2O1.Cl (racemic) [Compound 2, (±)-(2α,3aβ,12bα)-11-fluoro-3,3a,8,12b-tetrahydro N,N-dimethyl-2H-dibenzo[3,4:6,7]cyclohepta[1,2-b]furan-2-methanamine hydrochloride] |  | ≤ 2.5 |  |  | 
3 | CN(C)CC1CC2c3ccccc3Cc3ccccc3C2O1 (single isomer, unassigned) [a] |  |  | >10 | 10 | ≧10 mg/kg
4 | CN(C)CC1CC2c3ccccc3Cc3ccccc3C2O1 (single isomer, unassigned) [b] |  |  | >10 | 1.3 | 1.3 mg/kg
5 | CN(C)CC1CC2c3ccccc3Cc3ccccc3C2O1 (single isomer, unassigned) [c] |  |  | >10 | 10 | 1.25 mg/kg
6 | CN(C)CC1CC2c3ccccc3Cc3ccccc3C2O1 (single isomer, unassigned) [d] |  |  | 2.7 | 0.2 | 0.15 mg/kg
7 | CN(C)CC1CC2c3ccccc3Cc3ccc(F)cc3C2O1.O=C(O)C(O)C(O)C(=O)O (stereo not drawn) [Compound 11, [B-(2α,3aβ,12bα)]-11-fluoro-3,3a,8,12b-tetrahydro-N,N-dimethyl-2H-dibenzo[3,4:6,7]cyclohepta[1,2-b]furan-2-methanamine (+)-[R-R*,R*)]-2,3-dihydroxybutanedioate (1:1)] |  |  | 2.0 | 0.5 | 0.4 mg/kg
